Experimental data reported in patent US8263555B2 (Alcon Research, Ltd., priority 2007, dated 2012).
Several values for one entry are separate records, joined by “and”; a condition that tells them apart may be missing. Identical values can stand only once.

Experiments:
[1] = target: T1, BK B2-Receptor in h-NPE cells (Homo sapiens, UniProt P30411); experiment: Antagonism of BK-induced [Ca^2+]i mobilization in immortalized h-NPE cells; assay type: cell-based; conditions: read-out: Antagonist Potency (Ki; nM) vs BK (10 nM) in [Ca^2+]i Mobilization Assay, mean ± SEM or individual experiments
T1 construct: we discovered and pharmacologically characterized B2-receptor proteins in h-TM, h-CM and h-NPE cells; endogenous in cells; host or cells: immortalized human non-pigmented ciliary epithelial (h-NPE) cells
T1 sequence (P30411 1-391): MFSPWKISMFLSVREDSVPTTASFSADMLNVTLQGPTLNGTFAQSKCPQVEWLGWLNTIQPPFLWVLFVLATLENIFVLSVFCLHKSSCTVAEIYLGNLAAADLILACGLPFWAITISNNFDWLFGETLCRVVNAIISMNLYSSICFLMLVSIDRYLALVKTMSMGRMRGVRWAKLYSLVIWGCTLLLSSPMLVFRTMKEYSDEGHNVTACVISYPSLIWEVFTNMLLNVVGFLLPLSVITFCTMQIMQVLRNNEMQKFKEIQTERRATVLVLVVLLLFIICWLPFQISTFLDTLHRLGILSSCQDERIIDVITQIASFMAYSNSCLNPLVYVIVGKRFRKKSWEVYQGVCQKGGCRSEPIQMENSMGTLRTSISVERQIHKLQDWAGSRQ
Protocol: (§1) Opthalmol. Vis. Res. 47: 4001-4019, 2006; Sharif et al., J. Ocular Pharmacol. Ther. 22: 291-309, 2006).
(§2) On the day of the experiment, one vial of FLIPR Calcium Assay Kit dye is re-suspended in 50 mL of a FLIPR buffer consisting of Hank's Balanced Salt Solution (HBSS), 20 mM HEPES, and 2.5 mM probenecid, pH 7.4. Cells are loaded with the calcium-sensitive dye by addition of an equal volume (50 μL) to each well of the 96-well plate and incubated with dye for 1 h at 23° C. After this time, the test compound plate and cell plate are placed in the FLIPR instrument. At the beginning of an experimental run, a signal test is performed to check the basal fluorescence signal from the dye-loaded cells and the uniformity of the signal across the plate. The basal fluorescence is adjusted between 8000-12000 counts by modifying the exposure time, the camera F-stop, or the laser power. Instrument settings for a typical assay are the following: laser power 0.3-0.6 W, camera F-stop F/2, and exposure time 0.4 sec.
(§3) Fluorescence data are collected in real-time at 1.0 sec intervals for the first 60 secs and at 6.0 sec intervals for an additional 120 secs. […] The data are then analyzed using an automated, iterative, sigmoidal curve-fitting computer program to obtain the potency and intrinsic activities of the test agents as previously described (Sharif et al. J. Pharmacol. Exp. Ther. 286: 1094-1102, 1998; Sharif et al. Invest. Opthalmol. Vis. Sci. 39:2562-2571, 1998; Kelly et al. J. Pharmacol. Exp. Ther. 304: 238-245, 2003). The sources of materials and reagents for such assays can be found in the references cited above.

[2] = target: T2, BK B2-Receptor in h-CM cells (Homo sapiens, UniProt P30411); experiment: Antagonism of BK-induced [Ca^2+]i mobilization in h-CM cells; assay type: cell-based; conditions: read-out: Antagonist Potency (Ki; nM) vs BK (10 nM) in [Ca^2+]i Mobilization Assay, mean ± SEM or individual experiments
T2 construct: we discovered and pharmacologically characterized B2-receptor proteins in h-TM, h-CM and h-NPE cells; endogenous in cells; host or cells: primary human ciliary muscle (h-CM) cells
T2 sequence (P30411 1-391): T1 sequence (P30411 1-391)
Protocol: as §1, §2, §3

[3] = target: T3, BK B2-Receptor in h-TM cells (Homo sapiens, UniProt P30411); experiment: Antagonism of BK-induced [Ca^2+]i mobilization in h-TM cells; assay type: cell-based; conditions: read-out: Antagonist Potency (Ki; nM) vs BK (10 nM) in [Ca^2+]i Mobilization Assay, mean ± SEM or individual experiments
T3 construct: we discovered and pharmacologically characterized B2-receptor proteins in h-TM, h-CM and h-NPE cells; endogenous in cells; host or cells: primary human trabecular meshwork (h-TM) cells
T3 sequence (P30411 1-391): T1 sequence (P30411 1-391)
Protocol: as §1
as §2, with “Instrument settings for a typical assay are the following: laser power 0.3-0.6 W, camera F-stop F/2, and exposure time 0.4 sec.” left out
Fluorescence data are collected in real-time at 1.0 sec intervals for the first 60 secs and at 6.0 sec intervals for an additional 120 secs. […] The data are then analyzed using an automated, iterative, sigmoidal curve-fitting computer program to obtain the potency and intrinsic activities of the test agents as previously described (Sharif et al. J. Pharmacol. Exp. Ther. 286: 1094-1102, 1998; Sharif et al. Invest. Opthalmol. Vis. Sci. 39:2562-2571, 1998; Kelly et al. J. Pharmacol. Exp. Ther. 304: 238-245, 2003). […]

[4] = target: T4, B2-receptors in h-NPE cells (Homo sapiens, UniProt P30411); experiment: BK- and BK-related peptide-induced [Ca^2+]i mobilization in h-NPE cells (agonist potency); assay type: cell-based; conditions: BK = 100%, read-out: Intrinsic Activity (Emax, % max relative to BK)
T4 construct: we discovered and pharmacologically characterized B2-receptor proteins in h-TM, h-CM and h-NPE cells; endogenous in cells; host or cells: immortalized human non-pigmented ciliary epithelial (h-NPE) cells
T4 sequence (P30411 1-391): T1 sequence (P30411 1-391)

[5] = test system: rabbit IOP; experiment: Acute IOP response in rabbit eyes, intravitreal administration; assay type: in vivo; conditions: 50 μg, relative to vehicle alone
Protocol: IOP is determined with an applanation pneumatonometer after light corneal anesthesia with 0.1% proparacaine. After baseline IOP measurements are taken, one eye of each of 7-10 (or both eyes of 5) rabbits per compound dose is topically dosed with compound. Either the contralateral eye is dosed with vehicle or a separate group of rabbits is used for vehicle control. Subsequent IOP measurements are taken at 0.5, 1, 2, 3, and 4 hours. In cases where the compound has poor ocular bioavailability, the compound may need to be administered intracamerally or intravitreally in order to observe the IOP-lowering efficacy.
Conversely, non-peptidic BK antagonists dosed topical ocularly in the ocular hypertensive monkey eyes were ineffective at modulating IOP (see below Example 4).

[6] = test system: Conscious Ocular Hypertensive Cynomolgus Monkey Eyes; experiment: IOP response in conscious ocular hypertensive cynomolgus monkey eyes; assay type: in vivo; conditions: for % Change in IOP (mmHg): topical ocular 300 μg, mean ± SEM; for modulation of IOP (in words): topically administered 300 μg, conscious cynomolgus monkeys
Protocol: Intraocular pressure (IOP) is determined with an Alcon Pneumatonometer (Alcon Laboratories, Inc., Fort Worth, Tex.) after light corneal anesthesia with 0.1% proparacaine. Right eyes are hypertensive as a result of laser trabeculoplasty. After a baseline IOP measurement, test compound is instilled in the right eyes only of 8-10 cynomolgus monkeys. Vehicle is instilled in the right eyes of 5-6 additional animals. […] IOP measurements are also taken on left eyes (normotensive and untreated) at each of these time points. The percent change in IOP from baseline is determined for each animal for every IOP measurement (Sharif et al. J. Ocular Pharmacol. Ther. 17: 305-317, 2001; May et al., J Pharmacol Exp Ther. 306: 301-309, 2003; Sharif et al. Invest. Opthalmol. Vis. Res. 47: 4001-4010, 2006). Group mean and standard error of the mean (SEM) are calculated for each time point. […] In cases where the compound of invention has poor ocular bioavailability, the compound may need to be administered intracamerally or intravitreally in order to observe the IOP-lowering efficacy.

[7] = test system: h-CM cells; experiment: Production and release of endogenous prostaglandins from h-CM cells; assay type: cell-based, human; conditions: BK 1 μM, relative to baseline and to fluprostenol
Protocol: A functional assay to discover BK agonists may involve the measurement of prostaglandin E2 (PGE2) production (Wiernas et al. Brit. J. Pharmacol. 123: 1127-1137, 1998), for instance, in cells isolated from human or animal ocular or non-ocular tissues, or cells expressing recombinant (preferably human) BK receptors. Cells expressing BK receptors are seeded in 48-wells culture plates and allowed to reach confluence. After this time the cells are rinsed twice with 0.5 mL of phosphate buffered saline and incubated with the test agent made up in 0.5 mL Dulbeco's modified Eagle's medium (DMEM)/F-12 for 1 h at 37° C. […]
After this incubation, all tubes are placed in an ice-bath and 1 ml cold precipitating reagent supplied in the kit is added to the tubes, the content mixed and incubated for 25 min at 4° C. […] The supernatants of all tubes are decanted as specified in the kit instructions and the RIA samples analyzed on a gamma-counter. The levels of PGE2 generated by the test agent are then quantified in comparison with the PGE2-standard curve. Dose-response data for the test agent are constructed and the potency and intrinsic activity determined as described above for other assays. […]

[8] = test system: B1-receptor mRNA; experiment: Microarray analysis of B1-receptor mRNA in TGFβ2-treated human TM cells; assay type: cell-based; conditions: Glaucomatous h-TM cells, control 0.99 ± 0.58
[9] = test system: B2-receptor mRNA; experiment: Microarray analysis of B2-receptor mRNA in TGFβ2-treated human TM cells; assay type: cell-based

## Cc1nc2c(OCc3c(Cl)ccc(N(C)C(=O)CNC(=O)/C=C/c4ccc(C(=O)N(C)C)cc4)c3Cl)cccn2c1Br [FR-167344]
[1]
  Ki: 393 nM and 223 nM
[2]
  Ki: 13 nM and 4 nM
[3]
  Ki: 69 nM and 19 nM

## N=C(N)NCCC[C@H](N)C(=O)N1CCC[C@H]1C(=O)N1CCC[C@H]1C(=O)NCC(=O)N[C@@H](Cc1ccccc1)C(=O)N[C@@H](CO)C(=O)N1CCC[C@H]1C(=O)N[C@@H](Cc1ccccc1)C(=O)O [Des-Arg^9-BK]
[4]
  Emax: 70 to 77%
[5]
  effect on rabbit IOP: not

## CCCC[P+](CCCC)(CCCC)Cc1ccc(NC(=O)[C@H](Cc2ccc3ccccc3c2)NC(=NC2CCCCC2)NC2CCCCC2)cc1.[Cl-] [WIN-64338]
[6]; Dose 1/1 hr post-dose
  % Change in IOP (mmHg): 1.7 ± 1.6%
[6]; Dose 1/3 hr post-dose
  % Change in IOP (mmHg): −10.4 ± 2.8%
[6]; Dose 1/6 hr post-dose
  % Change in IOP (mmHg): 1.3 ± 1.3%
[6]
  modulation of IOP (in words): failed to modulate IOP

## CC(=O)Nc1ccc(/C=C/C(=O)NCC(=O)N(C)c2ccc(Cl)c(COc3cccc4ccc(C)nc34)c2Cl)cn1 [FR-173657]
[1]
  Ki: 787 nM and 788 nM
[2]
  Ki: 35 nM and 11 nM
[3]
  Ki: 121 nM and 193 nM

## CSCC[C@H](N)C(=O)N[C@@H](CCCCN)C(=O)N[C@@H](CCCNC(=N)N)C(=O)N1CCC[C@H]1C(=O)N1CCC[C@H]1C(=O)NCC(=O)N[C@@H](Cc1ccccc1)C(=O)N[C@@H](CO)C(=O)N1CCC[C@H]1C(=O)N[C@@H](Cc1ccccc1)C(=O)N[C@@H](CCCNC(=N)N)C(=O)O [Met-Lys-BK]
[4]
  Emax: 70 to 77%

## CNC(=O)c1ccc(/C=C/C(=O)NCC(=O)N(C)c2ccc(Cl)c(COc3cccc4ccc(C)nc34)c2Cl)cc1 [FR-165649]
[1]
  Ki: 393 nM and 337 nM
[2]
  Ki: 11 nM and 4 nM
[6]; Dose 1/1 hr post-dose
  % Change in IOP (mmHg): 1.0 ± 3.1%
[6]; Dose 1/3 hr post-dose
  % Change in IOP (mmHg): 0.7 ± 3.5%
[6]; Dose 1/6 hr post-dose
  % Change in IOP (mmHg): −6.2 ± 4.7%
[6]; Dose 1/24 hr post-dose
  % Change in IOP (mmHg): −4.0 ± 3.2%
[6]
  modulation of IOP (in words): failed to modulate IOP

## O=C(O)CCC/C=C\C[C@@H]1[C@@H](/C=C/[C@@H](O)COc2cccc(C(F)(F)F)c2)[C@H](O)C[C@@H]1O (racemic) [fluprostenol]
[7]
  production of prostaglandins: stimulation of production and release of endogenous prostaglandins

B1: TGFβ2: cytokine transforming growth factor-β2 (protein, UniProt P61812 303-414, looked up)
Transforming growth factor …: ALDAAYCFRNVQDNCCLRPLYIDFKRDLGWKWIHEPKGYNANFCAGACPYLWSSDTQHSRVLSLYNTINPEASASPCCVSQDLEPLTILYYIGKTPKIEQLSNMIVKSCKCS
[8]; after 1.5 hr
  Normalized level of B1-receptor mRNA (GC-RMA, mean ± SEM): 1.54 ± 0.09
[8]; after 16 hr
  Normalized level of B1-receptor mRNA (GC-RMA, mean ± SEM): 0.53 ± 0.05
[9]; Glaucomatous h-TM cells, after 1.5 hr, control 0.99 ± 0.04
  Normalized level of B2-receptor mRNA (GC-RMA, mean ± SEM): 0.97 ± 0.06
[9]; Glaucomatous h-TM cells, after 16 hr, control 0.99 ± 0.04
  Normalized level of B2-receptor mRNA (GC-RMA, mean ± SEM): 0.24 ± 0.06
[9]; Normal h-TM cells, after 1.5 hr, control 0.99 ± 0.06
  Normalized level of B2-receptor mRNA (GC-RMA, mean ± SEM): 0.68 ± 0.05
[9]; Normal h-TM cells, after 16 hr, control 0.99 ± 0.06
  Normalized level of B2-receptor mRNA (GC-RMA, mean ± SEM): 0.14 ± 0.11
